Source: patent US7151109B2, “Pyrazolo[1,5-a]pyridine derivatives and their use as neurotransmitter modulators” (Pharmacia & Upjohn Company LLC, priority 2002, dated 2006)

Structure (SMILES)	melting point [°C]
CCCN(CCC)c1c(CC)nn2c(-c3ccc(N(C)C)cc3Cl)cccc12 [Example 16, 7-[2-Chloro-4-(dimethylamino)phenyl]-2-ethyl-N,N-dipropylpyrazolo[1,5-a]pyridin-3-amine]	132.8 to 134.3
CCCN(CCC)c1c(CC)nn2c(-c3ccc(N(C)C)cc3C(F)(F)F)cccc12 [Example 14, 7-[4-(Dimethylamino)-2-(trifluoromethyl)phenyl]-2-ethyl-N,N-dipropylpyrazolo[1,5-a]pyridin-3-amine]	69.1 to 79.8
CCCN(CCC)c1c(CC)nn2c(-c3cnc(N(C)C)cc3C)cccc12 [Example 18, 7-[6-(Dimethylamino)-4-methylpyridin-3-yl]-2-ethyl-N,N-dipropylpyrazolo[1,5-a]pyridin-3-amine]	98.5 to 100.3
CCCN(CCC)c1c(CC)nn2c(-c3ccc(Cl)cc3Cl)cccc12.O=C(O)/C=C\C(=O)O [Example 11, 7-(2,4-Dichlorophenyl)-2-ethyl-N,N-dipropylpyrazolo[1,5-a]pyridin-3-amine maleic acid salt]	106 to 112
CCCN(CCC)c1c(CC)nn2c(-c3ccc(OC)cc3C)cccc12 [Example 12, 2-Ethyl-7-(4-methoxy-2-methylphenyl)-N,N-dipropylpyrazolo[1,5-a]pyridin-3-amine]	76 to 79
CCCN(CCC)c1c(CC)nn2c(-c3ccc(OC)cc3Cl)cccc12 [Example 13, 7-(2-Chloro-4-methoxyphenyl)-2-ethyl-N,N-dipropylpyrazolo[1,5-a]pyridin-3-amine]	73.6 to 76
CCc1nn2c(-c3ccc(OC)cc3Cl)cccc2c1N(CCF)CCOC [Example 25, 7-(2-Chloro-4-methoxyphenyl)-2-ethyl-N-(2-fluoroethyl)-N-(2-methoxyethyl)pyrazolo[1,5-a]pyridin-3-amine]	45.8 to 52.8
COc1ccc(-c2cccc3c(C(C)C)c(C)nn23)c(Cl)c1 [Example 40, 7-(2-Chloro-4-methoxyphenyl)-3-isopropyl-2-methylpyrazolo[1,5-a]pyridine]	111.9 to 114.9
